Test results from patent publication US12351565B2, “Aromatic compound and preparation method therefor and use thereof” (SHANGHAI JIANHE PHARMACEUTICAL & TECHNOLOGY CO. LTD., priority 2018, dated 2025).
Read-outs that look alike come from different tables or passages of the source.

Assays:
C57 mice [1] = experiment: Forced swimming experiment, intraperitoneal administration to mice; assay type: in vivo; details: for inhibition in vivo at 10 mg/kg: Mus musculus, ip
C57 mice [2] = experiment: Forced swimming experiment, oral administration to mice; assay type: in vivo; details: inhibition of immobility time, C57 mice
How it was run: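 Male C57 mice (6 weeks) dosed once orally at 20 mg/kg in 0.9% NaCl, tested 1 h and 24 h later after a 10 min pre-swim the day before. Immobility over the last 4 min of a 6 min swim (water 23-25° C); inhibition rate (%) calculated against blank group at each time.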

[3] = In vivo pharmacokinetic experiment in mice; details: C57 mice
Protocol: Healthy male C57 mice were randomly divided into groups with 3 mice in each group, and the test compounds were administrated intragastrically or by intravenous injection. See Table 6 below for specific arrangements:
Each test compound was dissolved in physiological saline to prepare a certain concentration of solution for administration.
One day before administration, the mice were fasted and allowed to drink freely for 12-14 h. The mice were fed 4 h after administration.
0.030 mL of blood was took from each animal each time through the orbit, and anticoagulated with EDTAK2. The collection time points were as follows: in PO group, 5 min, 15 min, 30 min, 1 h, 2 h, 4 h, 6 h, 8 h, 24 h after administration of test substance; in IV group, 2 min, 5 min, 15 min, 30 min, 1 h, 2 h, 4 h, 6 h, 8 h, 24 h after administration of test substance. After blood samples were collected, they were placed on ice and centrifuged to separate the plasma within 30 minutes (centrifugation conditions: 5000 rpm, 10 minutes, 4° C.). The sample were stored at −80° C. before analysis.

[4] = rats, literature (Journal of Psychopharmacology, 2019, 33, 12-24), cited from earlier work
[5] = in mice, background statement; cited from earlier work
[6] = cited from earlier work
[7] = male, mouse, iv, 5 mg/kg i.v., plasma
[8] = male, mouse, po, 20 mg/kg p.o., plasma
[9] = brain tissue, 50 mg/kg p.o., literature (Journal of Psychopharmacology, 2019, 33, 12-24)

SMILES: Cl.N[C@@]1(c2ccccc2Cl)CCC[C@@H](O)C1=O [(2R,6R)-HNK, (2R, 6R)-HNK, reference compound]
- inhibition in vivo at 10 mg/kg (C57 mice [1]; 1 h, read-out: 1 h inhibition rate): 31.1%
- inhibition in vivo at 10 mg/kg (C57 mice [1]; 24 h, read-out: 24 h inhibition rate): 27.4%
- 1 h inhibition rate (C57 mice [1]; inhibition of immobility time, forced swimming 1 h after single intraperitoneal 10 mg/kg, C57 mice): 31.1 ± 4.0%
- 24 h inhibition rate (C57 mice [1]; inhibition of immobility time, forced swimming 24 h after single intraperitoneal 10 mg/kg, C57 mice): 27.4 ± 3.9%
- 1 h inhibition rate (C57 mice [2]; forced swimming 1 h after single oral (intragastric) 20 mg/kg): 18.4 ± 1.6%
- 24 h inhibition rate (C57 mice [2]; forced swimming 24 h after single oral (intragastric) 20 mg/kg): 19.6 ± 4.4%
- AUC0-t ([3]; 5 mg/kg i.v., plasma): 2085 ngh/mL
- AUC0-∞ ([3]; 5 mg/kg i.v., plasma): 2096 ngh/mL
- F ([3]; 20 mg/kg p.o. vs 5 mg/kg i.v.): 66.8%
- AUC0-t ([3]; 20 mg/kg p.o., plasma): 5589 ngh/mL
- AUC0-∞ ([3]; 20 mg/kg p.o., plasma): 5599 ngh/mL
- MRT [3, 7]: 23.4 min
- half-life [3, 7]: 20.4 min
- clearance ([3]; male, mouse, plasma, iv, 5 mg/kg i.v.): 40.7 mL/min/kg
- Vd ([3]; male, mouse, plasma, iv, 5 mg/kg i.v., read-out: Vss): 0.94 L/kg
- Cmax [3, 8]: 7180 ng/mL
- MRT [3, 8]: 52.5 min
- Tmax [3, 8]: 5 min
- half-life [3, 8]: 55.8 min
- AUC0-∞ ([4]; 10 mg/kg i.v.): 6270 ngh/mL
- CL ([4]; 10 mg/kg i.v.): 27 mL/min/kg
- T1/2 ([4]; 10 mg/kg i.v.): 480 min
- Vss ([4]; 10 mg/kg i.v.): 7.5 L/kg
- AUC0-∞ ([4]; 10 mg/kg p.o.): 2650 ngh/mL
- Cmax ([4]; 10 mg/kg p.o.): 1500 ng/mL
- F ([4]; 10 mg/kg p.o.): 42%
- T1/2 ([4]; 10 mg/kg p.o.): 414 min
- Tmax ([4]; 10 mg/kg p.o.): 10 min
- T1/2 [5]: < 60 min
- Brain tissue concentration ([6]; 10 mg/kg intraperitoneally, literature (Nature, 2016, 533, 481-486; Nature, 2017, 546, E1-E5)): 2562 ng/g
- Brain tissue concentration ([6]; 50 mg/kg p.o., 10 min, literature (Journal of Psychopharmacology, 2019, 33, 12-24)): 6490 to 8600 ng/g
- AUC0-∞ [6, 9]: 2850 to 5190 ng·h/g
- T1/2 [6, 9]: 42 min
